SMILES strings stand for the structures. Several values for one entry are separate records, joined by “and”; a condition that tells them apart may be missing. Identical values can stand only once.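 Interpolation was linear, between the two tested concentrations surrounding the appropriate level; five concentrations were tested over 48 hours in 96-well plates. GI50: concentration for 50% inhibition of growth. TGI denotes the concentration required for complete inhibition of growth.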

One assay concerns SK-MEL-2 melanoma. The experiment in a line: growth of human tumour cells (NCI), 48 h.
On to `COc1ccc(/C=C(/C#N)n2nnc3cccc(F)c32)cc1`, for which the GI50 is 0.653 µM and the TGI was 21.9 µM.

The molecule `OCc1ccc(-c2ccc(-c3ccc(CO)s3)o2)s1` displayed a TGI of 89.2 µM.

Consider `COc1ccc(-c2nnc(COc3ccc(C(=O)/C=C/c4ccco4)cc3)o2)cc1`, for which the GI50 is 13.9 µM and the TGI was determined as 27.7 µM.

`OC(c1nc2ccccc2[nH]1)C(O)C(O)C(O)c1nc2ccccc2[nH]1` (stereo not drawn): the TGI was more than 100 µM.

With `O=c1c2sccc2n(CC2COc3ccccc3O2)c(=O)n1O` (stereo not drawn), the GI50 is 23.5 µM and the TGI was 80.7 µM.

`COc1cc(/C=C/c2cc(O)c(C(C)=O)c(O)c2)cc2c1O[C@]1(C)CC[C@@H](O)C(C)(C)[C@H]1C2`: the GI50 is 7.87 µM and the TGI came out at 51.6 µM.

Consider `Cc1cccc2c1CC1(C2)Cc2c(C)cccc2C1=O` (stereo not drawn), for which the TGI worked out at 38.3 µM.

The molecule `CCN(CC)/C(SCc1ccccc1)=C(\C(Cl)=C(Cl)Cl)[N+](=O)[O-]` registered a TGI of 45.5 µM.

`CC(C)C(C)/C=C\C(C)C1CCC2C3=CC=C4CC(O)CCC4(C)C3CCC21C` (stereo not drawn) returned a TGI of more than 100 µM.

The next assay concerns SR leukemia. The experiment in a line: growth of human tumour cells (NCI), 48 h.
Turning to `Fc1cc2[nH]ncc2c2c3c(c(-c4cn[nH]c4)nc12)CCCC3`, the GI50 was 0.355 µM and the TGI was more than 100 µM.

`C=C(Br)C(C)(Br)CCC(Br)C(C)(C)Cl` (stereo not drawn) gave a TGI of 27.9 µM.

Regarding `CSc1nc(NC2OCC(OC(C)=O)C(OC(C)=O)C2OC(C)=O)c(N=CC=Nc2c(NC3OCC(OC(C)=O)C(OC(C)=O)C3OC(C)=O)nc(SC)[nH]c2=O)c(=O)[nH]1` (stereo not drawn), the TGI was more than 100 µM.

Regarding `CN(C)CCSC1=Nc2ccc(Cl)cc2C(c2ccccc2Cl)=NC1`, the GI50 was 6.68 µM and 42 µM; the TGI is more than 100 µM.

For `O=C1OC(O)[C@@H]2[C@H]1[C@H]1CC[C@@H]2O1` (stereo partly drawn), the GI50 is more than 100 µM and the TGI was more than 100 µM.

Consider `COc1cccc(-c2nc(-c3ccc(NC(=O)C(C)C)cc3)[nH]c2-c2ccnc(Br)c2)c1`, for which the GI50 was 2.41 µM and the TGI is more than 100 µM.

`COc1ccc(-c2nnc(COc3ccc(NC(=O)Nc4cc(C(F)(F)F)cc(C(F)(F)F)c4)cc3F)o2)cc1`: the GI50 was 2.19 µM and the TGI was determined as 5.95 µM.

Turning to `COc1ccc(/C=C(/C#N)n2nnc3cccc(F)c32)cc1`, the GI50 is 0.48 µM and the TGI is more than 100 µM.

The molecule `OCc1ccc(-c2ccc(-c3ccc(CO)s3)o2)s1` gave a TGI of 61.1 µM.

Regarding `COc1ccc(-c2nnc(COc3ccc(C(=O)/C=C/c4ccco4)cc3)o2)cc1`, the GI50 is 1.52 µM and the TGI came to 7.28 µM.

Take `OC(c1nc2ccccc2[nH]1)C(O)C(O)C(O)c1nc2ccccc2[nH]1` (stereo not drawn): the TGI was more than 100 µM.

Take `O=c1c2sccc2n(CC2COc3ccccc3O2)c(=O)n1O` (stereo not drawn): the GI50 was 8.1 µM and the TGI was more than 100 µM.

Regarding `COc1cc(/C=C/c2cc(O)c(C(C)=O)c(O)c2)cc2c1O[C@]1(C)CC[C@@H](O)C(C)(C)[C@H]1C2`, the GI50 is 3.62 µM and the TGI was more than 100 µM.

`Cc1cccc2c1CC1(C2)Cc2c(C)cccc2C1=O` (stereo not drawn) returned a TGI of 37.4 µM.

`CCN(CC)/C(SCc1ccccc1)=C(\C(Cl)=C(Cl)Cl)[N+](=O)[O-]` had a TGI of 73.6 µM.

As for `CC(C)C(C)/C=C\C(C)C1CCC2C3=CC=C4CC(O)CCC4(C)C3CCC21C` (stereo not drawn), the TGI is more than 61.8 µM.

The next assay concerns SW-620 colon. The experiment in a line: growth of human tumour cells (NCI), 48 h.
Consider `Fc1cc2[nH]ncc2c2c3c(c(-c4cn[nH]c4)nc12)CCCC3`, for which the GI50 is 0.451 µM and the TGI was more than 26.6 µM.

In the case of `C=C(Br)C(C)(Br)CCC(Br)C(C)(C)Cl` (stereo not drawn), the TGI was 30.4 µM.

The molecule `CSc1nc(NC2OCC(OC(C)=O)C(OC(C)=O)C2OC(C)=O)c(N=CC=Nc2c(NC3OCC(OC(C)=O)C(OC(C)=O)C3OC(C)=O)nc(SC)[nH]c2=O)c(=O)[nH]1` (stereo not drawn) registered a TGI of more than 100 µM.

As to `CN(C)CCSC1=Nc2ccc(Cl)cc2C(c2ccccc2Cl)=NC1`, the GI50 is 16.6 µM and 33.5 µM; the TGI was 34 µM and > 100 µM.

On to `O=C1OC(O)[C@@H]2[C@H]1[C@H]1CC[C@@H]2O1` (stereo partly drawn), for which the GI50 was 52 µM and the TGI is more than 100 µM.

Turning to `COc1cccc(-c2nc(-c3ccc(NC(=O)C(C)C)cc3)[nH]c2-c2ccnc(Br)c2)c1`, the GI50 is 3.52 µM and the TGI was more than 100 µM.

Turning to `COc1ccc(-c2nnc(COc3ccc(NC(=O)Nc4cc(C(F)(F)F)cc(C(F)(F)F)c4)cc3F)o2)cc1`, the GI50 was 2.19 µM and the TGI was 5.72 µM.

For `COc1ccc(/C=C(/C#N)n2nnc3cccc(F)c32)cc1`, the GI50 was 0.399 µM and the TGI was more than 100 µM.

For `OCc1ccc(-c2ccc(-c3ccc(CO)s3)o2)s1`, the TGI is more than 100 µM.

`COc1ccc(-c2nnc(COc3ccc(C(=O)/C=C/c4ccco4)cc3)o2)cc1`: the GI50 was 1.91 µM and the TGI came out at 4.11 µM.

On to `OC(c1nc2ccccc2[nH]1)C(O)C(O)C(O)c1nc2ccccc2[nH]1` (stereo not drawn), for which the TGI is more than 100 µM.

Turning to `O=c1c2sccc2n(CC2COc3ccccc3O2)c(=O)n1O` (stereo not drawn), the GI50 was 3.76 µM and the TGI is more than 100 µM.

For the molecule `COc1cc(/C=C/c2cc(O)c(C(C)=O)c(O)c2)cc2c1O[C@]1(C)CC[C@@H](O)C(C)(C)[C@H]1C2`, the GI50 was 5.52 µM and the TGI is more than 100 µM.

Consider `Cc1cccc2c1CC1(C2)Cc2c(C)cccc2C1=O` (stereo not drawn), for which the TGI is more than 100 µM.

As to `CCN(CC)/C(SCc1ccccc1)=C(\C(Cl)=C(Cl)Cl)[N+](=O)[O-]`, the TGI stood at 50.4 µM.

`CC(C)C(C)/C=C\C(C)C1CCC2C3=CC=C4CC(O)CCC4(C)C3CCC21C` (stereo not drawn) showed a TGI of more than 72.3 µM.

Source of the values: PubChem BioAssay (NCI).
